This experiment concerns Fisher rats. The experiment in a line: Tele-Stereo-EEG: field potentials (spectral power) in freely moving rats. Particulars: 4 mg i.p. Format: in vivo, rat.

For the compound `OC1(c2ccc(Cl)cc2)CCN(Cc2c[nH]c3ccccc23)CC1` [L-741,626], the “changes in the EEG power spectrum” value was “strong decrease of spectral power mainly within the alpha2 waves”.

For the origin of these results see patent publication US8637099B2, “Use of Vitex agnus castus extracts for preparing a medicament” (Max Zeller Sohne AG, priority 2007, dated 2014).
